Starred links: 1 amine or outer side, 2 acyl side, 3 side chain; linkers in the order of their positions; H or OH if unused. Non-standard residues stand in square brackets, D forms with d. Residues, ends and D or L forms follow the SMILES beside them. Groups on a side chain read outwards from the residue. *: point of attachment. C20 diacid = O=C(O)CCCCCCCCCCCCCCCCCCC(=O)*; C18 diacid = O=C(O)CCCCCCCCCCCCCCCCC(=O)*; γGlu = O=C(O)[C@H](CCC(=O)[*:2])N[*:1]; αMeF = C[C@](N)(Cc1ccccc1)C(=O)O; AEEA = NCCOCCOCC(=O)O; Aib = CC(C)(N)C(=O)O
How the values were obtained:
[1] = molecular target: human glucagon receptor (hGCGR) (Homo sapiens, UniProt P47871); test: cAMP production (HTRF) in CHO cells expressing hGCGR; assay type: cell-based; design: expressed in transfected cells; settings: Table 6, peptides modified at position 17; cAMP in CHO hGCGR cells; geometric mean; read-out: hGluc-R EC50
Outline: (§1)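 Potency values represent EC50 from 4-parameter logistic curves of HTRF % Delta F signal. Receptor-expressing CHO cells (hGCGR 2×10^5 cells/mL, hGLP-1R 1×10^5 cells/mL) were exposed for 30 min at room temperature before two-step cAMP detection.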

[2] = molecular target: human GLP-1 receptor (hGLP-1R) (Homo sapiens, UniProt P43220); test: cAMP production (HTRF) in CHO cells expressing hGLP-1R; assay type: cell-based; design: expressed in transfected cells; settings: for EC50: Table 6, peptides modified at position 17, cAMP in CHO hGLP-1R cells, geometric mean, read-out: hGLP-1R EC50; for % Relative Potency Ratio: Table 6, % GLP-1R activity relative to GLP-1 / % GlucR activity relative to glucagon
Outline: as §1

Sequence of human glucagon receptor (hGCGR) (P47871 26-477): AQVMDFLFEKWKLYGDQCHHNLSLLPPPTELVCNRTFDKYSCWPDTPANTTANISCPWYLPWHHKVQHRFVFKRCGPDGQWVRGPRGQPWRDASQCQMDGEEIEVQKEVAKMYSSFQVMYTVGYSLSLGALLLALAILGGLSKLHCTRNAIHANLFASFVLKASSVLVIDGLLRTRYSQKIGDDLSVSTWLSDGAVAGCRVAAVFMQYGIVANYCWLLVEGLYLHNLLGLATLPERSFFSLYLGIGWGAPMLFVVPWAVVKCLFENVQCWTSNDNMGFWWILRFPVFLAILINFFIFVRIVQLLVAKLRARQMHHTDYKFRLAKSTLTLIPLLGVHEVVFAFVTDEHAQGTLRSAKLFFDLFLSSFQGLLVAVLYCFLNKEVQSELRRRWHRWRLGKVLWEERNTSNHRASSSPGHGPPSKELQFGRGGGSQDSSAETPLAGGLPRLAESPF
Sequence of human GLP-1 receptor (hGLP-1R) (P43220 24-463): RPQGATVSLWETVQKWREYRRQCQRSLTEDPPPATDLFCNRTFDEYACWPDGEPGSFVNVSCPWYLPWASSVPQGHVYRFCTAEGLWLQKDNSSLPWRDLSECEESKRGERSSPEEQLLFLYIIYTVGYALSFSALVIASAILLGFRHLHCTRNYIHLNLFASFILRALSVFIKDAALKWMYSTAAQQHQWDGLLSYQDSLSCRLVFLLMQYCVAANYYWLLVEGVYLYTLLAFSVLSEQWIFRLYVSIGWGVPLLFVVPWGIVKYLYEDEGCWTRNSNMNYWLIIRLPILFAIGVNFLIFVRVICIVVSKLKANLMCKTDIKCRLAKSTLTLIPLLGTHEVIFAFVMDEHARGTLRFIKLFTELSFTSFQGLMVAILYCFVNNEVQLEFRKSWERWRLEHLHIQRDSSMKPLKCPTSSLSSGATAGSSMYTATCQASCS

Row | Compound | EC50 [1] | EC50 [2] | % Relative Potency Ratio [2]
1 | CC(C)C[C@H](NC(=O)[C@H](Cc1c[nH]c2ccccc12)NC(=O)[C@H](CCC(N)=O)NC(=O)[C@@H](NC(=O)[C@H](Cc1ccccc1)NC(=O)[C@H](CC(=O)O)NC(=O)[C@H](CCCNC(=N)N)NC(=O)[C@H](C)NC(=O)[C@H](CCCNC(=N)N)NC(=O)[C@H](CCCCNC(=O)COCCOCCNC(=O)COCCOCCNC(=O)CC[C@H](NC(=O)CC[C@H](NC(=O)CCCCCCCCCCCCCCCCCCC(=O)O)C(=O)O)C(=O)O)NC(=O)[C@@H](NC(=O)[C@H](CC(=O)O)NC(=O)[C@H](CC(C)C)NC(=O)[C@](C)(Cc1ccccc1)NC(=O)[C@H](CCCCN)NC(=O)[C@H](CO)NC(=O)[C@@H](NC(=O)[C@H](CC(=O)O)NC(=O)[C@H](CO)NC(=O)[C@@H](NC(=O)[C@H](Cc1ccccc1)NC(=O)[C@@H](NC(=O)CNC(=O)[C@H](CCC(N)=O)NC(=O)C(C)(C)NC(=O)[C@@H](N)Cc1c[nH]cn1)[C@@H](C)O)[C@@H](C)O)C(C)C)[C@@H](C)O)C(C)C)C(=O)N[C@@H](CC(C)C)C(=O)N[C@@H](CCC(=O)O)C(=O)NC(C)(C)C(=O)NCC(=O)O [Peptide 449] | 0.242 nM | 0.207 nM | 2.3
2 | CC(C)C[C@H](NC(=O)[C@H](Cc1c[nH]c2ccccc12)NC(=O)[C@H](CCCNC(=N)N)NC(=O)[C@@H](NC(=O)[C@H](Cc1ccccc1)NC(=O)[C@H](CC(=O)O)NC(=O)[C@H](CCC(N)=O)NC(=O)[C@H](C)NC(=O)[C@H](CCCNC(=N)N)NC(=O)[C@H](CCCCNC(=O)COCCOCCNC(=O)COCCOCCNC(=O)CC[C@H](NC(=O)CC[C@H](NC(=O)CCCCCCCCCCCCCCCCC(=O)O)C(=O)O)C(=O)O)NC(=O)[C@H](CCCCN)NC(=O)[C@H](CC(=O)O)NC(=O)[C@H](CC(C)C)NC(=O)[C@](C)(Cc1ccccc1)NC(=O)[C@H](CCCCN)NC(=O)[C@H](CO)NC(=O)[C@@H](NC(=O)[C@H](CC(=O)O)NC(=O)[C@H](CO)NC(=O)[C@@H](NC(=O)[C@H](Cc1ccccc1)NC(=O)[C@@H](NC(=O)CNC(=O)[C@H](CCC(N)=O)NC(=O)C(C)(C)NC(=O)[C@@H](N)Cc1c[nH]cn1)[C@@H](C)O)[C@@H](C)O)C(C)C)C(C)C)C(=O)N[C@@H](CC(C)C)C(=O)N[C@@H](CCC(=O)O)C(=O)NC(C)(C)C(=O)NCC(=O)O [Peptide 450] (H-H[Aib]QGTFTSDVSK[αMeF]LDKK([AEEA-AEEA-γGlu-γGlu-C18 diacid])RAQDFVRWLLE[Aib]G-OH; N-terminus assumed) | 0.0578 nM | 0.0573 nM | 2.0
3 | CC(C)C[C@H](NC(=O)[C@H](Cc1c[nH]c2ccccc12)NC(=O)[C@H](CC(C)C)NC(=O)[C@@H](NC(=O)[C@H](Cc1ccccc1)NC(=O)[C@H](CC(=O)O)NC(=O)[C@H](CCCNC(=N)N)NC(=O)[C@H](C)NC(=O)[C@H](CCCNC(=N)N)NC(=O)[C@H](CCCCNC(=O)COCCOCCNC(=O)COCCOCCNC(=O)CC[C@H](NC(=O)CCCCCCCCCCCCCCCCCCC(=O)O)C(=O)O)NC(=O)[C@H](CCCCN)NC(=O)[C@H](CC(=O)O)NC(=O)[C@H](CC(C)C)NC(=O)[C@](C)(Cc1ccccc1)NC(=O)[C@H](CCCCN)NC(=O)[C@H](CO)NC(=O)[C@@H](NC(=O)[C@H](CC(=O)O)NC(=O)[C@H](CO)NC(=O)[C@@H](NC(=O)[C@H](Cc1ccccc1)NC(=O)[C@@H](NC(=O)CNC(=O)[C@H](CCC(N)=O)NC(=O)C(C)(C)NC(=O)[C@@H](N)Cc1c[nH]cn1)[C@@H](C)O)[C@@H](C)O)C(C)C)C(C)C)C(=O)N[C@@H](CC(C)C)C(=O)NC(C)(C)C(=O)N[C@@H](CCC(=O)O)C(N)=O [Peptide 451] (H-H[Aib]QGTFTSDVSK[αMeF]LDKK([AEEA-AEEA-γGlu-C20 diacid])RARDFVLWLL[Aib]E-NH2; N-terminus assumed) | 0.503 nM | 0.895 nM | 1.1
4 | CC(C)C[C@H](NC(=O)[C@H](C)NC(=O)[C@H](CCCNC(=N)N)NC(=O)[C@H](CCCCNC(=O)COCCOCCNC(=O)COCCOCCNC(=O)CC[C@H](NC(=O)CCCCCCCCCCCCCCCCCCC(=O)O)C(=O)O)NC(=O)[C@H](CCCCN)NC(=O)[C@H](CC(=O)O)NC(=O)[C@H](CC(C)C)NC(=O)[C@](C)(Cc1ccccc1)NC(=O)[C@H](CCCCN)NC(=O)[C@H](CO)NC(=O)[C@@H](NC(=O)[C@H](CC(=O)O)NC(=O)[C@H](CO)NC(=O)[C@@H](NC(=O)[C@H](Cc1ccccc1)NC(=O)[C@@H](NC(=O)CNC(=O)[C@H](CCC(N)=O)NC(=O)C(C)(C)NC(=O)[C@@H](N)Cc1c[nH]cn1)[C@@H](C)O)[C@@H](C)O)C(C)C)C(=O)N[C@@H](CC(=O)O)C(=O)N[C@@H](Cc1ccccc1)C(=O)N[C@H](C(=O)N[C@@H](CCCNC(=N)N)C(=O)N[C@@H](Cc1c[nH]c2ccccc12)C(=O)N[C@@H](CC(C)C)C(=O)N[C@@H](CC(C)C)C(=O)NC(C)(C)C(=O)N[C@@H](CCC(=O)O)C(N)=O)C(C)C [Peptide 452] (H-H[Aib]QGTFTSDVSK[αMeF]LDKK([AEEA-AEEA-γGlu-C20 diacid])RALDFVRWLL[Aib]E-NH2) | 0.151 nM | 0.495 nM | 0.6
5 | CC(C)C[C@H](NC(=O)[C@H](Cc1c[nH]c2ccccc12)NC(=O)[C@H](CCCNC(=N)N)NC(=O)[C@@H](NC(=O)[C@H](Cc1ccccc1)NC(=O)[C@H](CC(=O)O)NC(=O)[C@H](CCC(N)=O)NC(=O)[C@H](C)NC(=O)[C@H](CCCNC(=N)N)NC(=O)[C@H](CCCCNC(=O)COCCOCCNC(=O)COCCOCCNC(=O)CC[C@H](NC(=O)CCCCCCCCCCCCCCCCCCC(=O)O)C(=O)O)NC(=O)[C@H](CCCCN)NC(=O)[C@H](CC(=O)O)NC(=O)[C@H](CC(C)C)NC(=O)[C@](C)(Cc1ccccc1)NC(=O)[C@H](CCCCN)NC(=O)[C@H](CO)NC(=O)[C@@H](NC(=O)[C@H](CC(=O)O)NC(=O)[C@H](CO)NC(=O)[C@@H](NC(=O)[C@H](Cc1ccccc1)NC(=O)[C@@H](NC(=O)CNC(=O)[C@H](CCC(N)=O)NC(=O)C(C)(C)NC(=O)[C@@H](N)Cc1c[nH]cn1)[C@@H](C)O)[C@@H](C)O)C(C)C)C(C)C)C(=O)N[C@@H](CC(C)C)C(=O)N[C@@H](CCC(=O)O)C(=O)NC(C)(C)C(=O)NCC(N)=O [Peptide 453] | 0.162 nM | 0.17 nM | 1.9
6 | CC(C)C[C@H](NC(=O)[C@H](Cc1c[nH]c2ccccc12)NC(=O)[C@H](CCCNC(=N)N)NC(=O)[C@@H](NC(=O)[C@H](Cc1ccccc1)NC(=O)[C@H](CC(=O)O)NC(=O)[C@H](CCC(N)=O)NC(=O)[C@H](C)NC(=O)[C@H](CCCNC(=N)N)NC(=O)[C@H](CCCCNC(=O)COCCOCCNC(=O)COCCOCCNC(=O)CC[C@H](NC(=O)CCCCCCCCCCCCCCCCCCC(=O)O)C(=O)O)NC(=O)[C@H](CCCCN)NC(=O)[C@H](CC(=O)O)NC(=O)[C@H](CC(C)C)NC(=O)[C@](C)(Cc1ccccc1)NC(=O)[C@H](CCCCN)NC(=O)[C@H](CO)NC(=O)[C@@H](NC(=O)[C@H](CC(=O)O)NC(=O)[C@H](CO)NC(=O)[C@@H](NC(=O)[C@H](Cc1ccccc1)NC(=O)[C@@H](NC(=O)CNC(=O)[C@H](CCC(N)=O)NC(=O)C(C)(C)NC(=O)[C@@H](N)Cc1c[nH]cn1)[C@@H](C)O)[C@@H](C)O)C(C)C)C(C)C)C(=O)N[C@@H](CCC(=O)O)C(=O)N[C@@H](C)C(=O)NC(C)(C)C(=O)NCC(N)=O [Peptide 454] (H-H[Aib]QGTFTSDVSK[αMeF]LDKK([AEEA-AEEA-γGlu-C20 diacid])RAQDFVRWLEA[Aib]G-NH2) | 0.274 nM | 0.173 nM | 3.1
7 | CC(C)C[C@H](NC(=O)[C@H](Cc1c[nH]c2ccccc12)NC(=O)[C@H](CCCNC(=N)N)NC(=O)[C@@H](NC(=O)[C@H](Cc1ccccc1)NC(=O)[C@H](CC(=O)O)NC(=O)[C@H](CCC(N)=O)NC(=O)[C@H](C)NC(=O)[C@H](CCCNC(=N)N)NC(=O)[C@H](CCCCNC(=O)COCCOCCNC(=O)COCCOCCNC(=O)CC[C@H](NC(=O)CC[C@H](NC(=O)CCCCCCCCCCCCCCCCCCC(=O)O)C(=O)O)C(=O)O)NC(=O)[C@H](CCCCN)NC(=O)[C@H](CC(=O)O)NC(=O)[C@H](CC(C)C)NC(=O)[C@](C)(Cc1ccccc1)NC(=O)[C@H](CCCCN)NC(=O)[C@H](CO)NC(=O)[C@@H](NC(=O)[C@H](CC(=O)O)NC(=O)[C@H](CO)NC(=O)[C@@H](NC(=O)[C@H](Cc1ccccc1)NC(=O)[C@@H](NC(=O)CNC(=O)[C@H](CCC(N)=O)NC(=O)C(C)(C)NC(=O)[C@@H](N)Cc1c[nH]cn1)[C@@H](C)O)[C@@H](C)O)C(C)C)C(C)C)C(=O)N[C@@H](CC(C)C)C(=O)NC(C)(C)C(=O)N[C@@H](CCC(=O)O)C(N)=O [Peptide 455] (H-H[Aib]QGTFTSDVSK[αMeF]LDKK([AEEA-AEEA-γGlu-γGlu-C20 diacid])RAQDFVRWLL[Aib]E-NH2) | 0.114 nM | 0.127 nM | 1.8
8 | CC(C)C[C@H](NC(=O)[C@H](Cc1c[nH]c2ccccc12)NC(=O)[C@H](CCCNC(=N)N)NC(=O)[C@@H](NC(=O)[C@H](Cc1ccccc1)NC(=O)[C@H](CC(=O)O)NC(=O)[C@H](CCC(N)=O)NC(=O)[C@H](C)NC(=O)[C@H](CCCNC(=N)N)NC(=O)[C@H](CCCCNC(=O)COCCOCCNC(=O)COCCOCCNC(=O)CC[C@H](NC(=O)CCCCCCCCCCCCCCCCCCC(=O)O)C(=O)O)NC(=O)[C@H](CCCNC(=N)N)NC(=O)[C@H](CC(=O)O)NC(=O)[C@H](CC(C)C)NC(=O)[C@](C)(Cc1ccccc1)NC(=O)[C@H](CCCCN)NC(=O)[C@H](CO)NC(=O)[C@@H](NC(=O)[C@H](CC(=O)O)NC(=O)[C@H](CO)NC(=O)[C@@H](NC(=O)[C@H](Cc1ccccc1)NC(=O)[C@@H](NC(=O)CNC(=O)[C@H](CCC(N)=O)NC(=O)C(C)(C)NC(=O)[C@@H](N)Cc1c[nH]cn1)[C@@H](C)O)[C@@H](C)O)C(C)C)C(C)C)C(=O)N[C@@H](CC(C)C)C(=O)NC(C)(C)C(=O)N[C@@H](CCC(=O)O)C(N)=O [Peptide 456] (H-H[Aib]QGTFTSDVSK[αMeF]LDRK([AEEA-AEEA-γGlu-C20 diacid])RAQDFVRWLL[Aib]E-NH2; N-terminus assumed) | 0.0803 nM | 0.133 nM | 1.2

From patent publication US20250353891A1 (MEDIMMUNE LIMITED, priority 2022, published 2025)
